Measurements published in patent US5935824A, “Protein expression system” (Technologene, Inc., priority 1996, dated 1999).
Blank lines part the entries; values can stand above or below the molecule they belong to. Residues, ends and D or L forms follow the SMILES beside them. *: point of attachment. Cbz = O=C(OCc1ccccc1)*

Biological target: T1, carboxypeptidase Y (CPD-Y) immobilized to Acti-Disk (Saccharomyces cerevisiae, UniProt P00729)
T1 construct: purchased Sigma
T1 sequence (P00729 112-532): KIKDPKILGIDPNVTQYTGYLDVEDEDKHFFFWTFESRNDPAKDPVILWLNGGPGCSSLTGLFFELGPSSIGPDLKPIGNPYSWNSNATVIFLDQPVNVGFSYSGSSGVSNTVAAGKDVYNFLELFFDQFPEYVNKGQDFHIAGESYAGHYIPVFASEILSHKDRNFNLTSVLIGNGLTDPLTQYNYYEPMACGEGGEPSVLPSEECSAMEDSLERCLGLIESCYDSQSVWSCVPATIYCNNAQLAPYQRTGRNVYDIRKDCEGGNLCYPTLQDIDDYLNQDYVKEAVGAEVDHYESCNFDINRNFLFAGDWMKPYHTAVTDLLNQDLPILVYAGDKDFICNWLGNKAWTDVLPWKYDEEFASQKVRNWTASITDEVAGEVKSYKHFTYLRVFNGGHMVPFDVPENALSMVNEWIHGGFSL
Experiment: Flow digestion of N-CBZ-peptides through CPD-Y Acti Disk, ninhydrin assays
Assay type: biochemical, yeast
Experimental: The reported Km values for CPD-Y have been generated using extremely low enzyme concentration compared to substrate concentration. The value for Km represents the concentration of substrate that will produce 1/2 the maximum velocity for the initial reaction rates. During the testing of the immobilized CPD-Y enzyme disks with various dipeptide substrates, the maximum flow rate that can be achieved without any substantial increase in the pressure of the solution, is 4 ml/min. At this flow rate, the substrate remains within the immobilized enzyme matrix for 1.74 seconds. This value is determined by dividing the internal porous volume of the matrix to which the enzyme is immobilized (115 μL/4000 μL, min^-1). Due to the high concentration of enzyme (565 μM) within the limited volume of the immobilization matrix (115 μl) a very high percentage of the substrate was hydrolyzed even at these short incubation times which prevents the accurate determination of actual Km values for the individual substrates.
Standard ninhydrin assay: Hydrolysis of the non-proline containing N-CBZ-dipeptides was determined by assaying the amount of free amino acid released by a colorometric ninhydrin reaction at a pH greater than 5.2. One gram of ninhydrin was dissolved in 50 ml ethylene glycol monomethyl ether containing 0.03% ascorbic acid. This ninhydrin solution was made fresh daily. A 0.4 M Citrate buffer, pH 5.2 was made by adjusting the pH of ACS grade citric acid with NaOH. Two hundred microliter samples at pH greater than 5.2 were mixed with an equal volume of ninhydrin reagent and incubated at 100° C. for 20 minutes. When 200 μl samples below pH 5.2 were to be assayed, 100 μl of 0.4 M Citrate buffer was included prior to heating the sample to 100° C. Samples were then cooled to room temperature and 600 μl of 60% ethanol was added as the diluent and the absorbance was read at 570 nm on a Beckman DU 7000 spectrophotometer.
Proline ninhydrin assay: Hydrolysis of proline-containing N-CBZ-dipeptides were measured with a modified version of the assay described by Magne and Larher [Anal. Biochem., 200:115 (1982)]. Briefly a ninhydrin reagent containing 2% ninhydrin prepared in glacial acetic acid:water 60:40 (v/v) was prepared. Five hundred microliter samples were combined with 500 μl glacial acetic acid and 500 μl ninhydrin reagent was added. The sample was subsequently boiled for one hour. One milliliter of analytical grade toluene was then used to extract the chromophore and the absorbance was read at 520 nm.
Concentrations of N-CBZ-Ala-Pro ranging from 4 mM to 100 μM (100 mM citrate, 100 mM NaCl, pH 5.75) were passed through a CPD-Y Acti Disk at a flow rate of 2.0 ml/min. Reaction rates were determined by assaying the appropriate dilutions of the various substrates using the above described proline ninhydrin assay specific of free proline to obtain […] readings below 1.5.
N-CBZ-Ala-Pro (dissolved in 100 mM citrate, 100 mM NaCl, pH 5.75) at a concentration of 200 μM, was passed through the same CPD-Y Acti Disk at flow rates ranging from 2 ml/min to 175 μl/ min. Five milliliters of each specific flow rate were collected and assayed by the proline ninhydrin assay in order to determine the relative percentage of substrate that was hydrolyzed using the various flow rates. In order to characterize the amount of substrate hydrolyzed per unit of time, flow rates are converted to amount of time that the substrate is within the immobilized enzyme matrix (Acti Disk). The amount of time the substrate is within the immobilized enzyme matrix at a given flow rate is shown below in Table 6.
The first order rate constant determined for the N-CBZ-Ala-Pro substrate is applicable only as a reference for comparison to other N-CBZ-dipeptide first order rate constants. N-CBZ-Phe-Ala is the substrate used by Sigma to characterize the activity of CPD-Y at 100 units per milligram, 1 unit can hydrolyze 1 μmol of N-CBZ-Phe-Ala per minute. […]

[1] = 200 μM substrate, 2 × 2 ml/min (two passes)
[2] = 200 μM substrate, flow rate 0.25 ml/min, one pass
[3] = 200 μM substrate, flow rate 1.0 ml/min, one pass
[4] = 200 μM substrate, flow rate 2.0 ml/min, one pass
[5] = second flow at 2.0 ml/min, 3.45 seconds
[6] = flow rate 2 ml/min, 3.45 seconds, pH 5.75, ~25° C.
[7] = 200 μM substrate, varied flow rates

Structure (SMILES): CC(C)C[C@H](NC(=O)[C@@H]1CCCN1C(=O)CNC(=O)OCc1ccccc1)C(=O)N[C@@H](C)C(=O)N1CCC[C@H]1C(=O)O [N-CBZ-Gly-Pro-Leu-Ala-Pro] (Cbz-GPLAP-OH)
Concentration of amino acids released, standard ninhydrin assay [1]: 353.4 µM | Concentration of proline released, proline ninhydrin assay [1]: 195.6 µM | Concentration of amino acids released, standard ninhydrin assay [2]: 384.0 µM | Concentration of proline released, proline ninhydrin assay [2]: 212.5 µM | Concentration of amino acids released, standard ninhydrin assay [3]: 315.9 µM | Concentration of proline released, proline ninhydrin assay [3]: 196.5 µM | Concentration of amino acids released, standard ninhydrin assay [4]: 265.7 µM | Concentration of proline released, proline ninhydrin assay [4]: 197.0 µM | Kinetic constant k for the remaining Pro-Leu bond [5]: 18.39 | Product released in second flow [5]: 87.7 µM

Structure (SMILES): O=C(O)CC[C@H](NC(=O)OCc1ccccc1)C(=O)N[C@@H](Cc1ccc(O)cc1)C(=O)O [N-CBZ-Glu-Tyr] (Cbz-Glu-Tyr-OH)
K^1 min^-1 (first order reaction constant) [6]: 24.24 min⁻¹ | Log S/S-P [6]: 0.606

Structure (SMILES): CC(C)C[C@H](NC(=O)[C@H](C)NC(=O)OCc1ccccc1)C(=O)O [N-CBZ-Ala-Leu] (Cbz-Ala-Leu-OH)
K^1 min^-1 (first order reaction constant) [6]: 27.52 min⁻¹ | Log S/S-P [6]: 0.688

Structure (SMILES): C[C@H](NC(=O)OCc1ccccc1)C(=O)N1CCC[C@H]1C(=O)O [N-CBZ-Ala-Pro] (Cbz-Ala-Pro-OH)
First-order rate constant (200 μM substrate, converted from seconds^-1): 3.84 min⁻¹ | Log S/S-P (200 μM substrate, flow rate 175 μl/min, 36.4 seconds): 1.541 | Log S/S-P (200 μM substrate, flow rate 350 μl/min, 19.7 seconds): 1.022 | Log S/S-P (200 μM substrate, flow rate 1000 μl/min, 6.90 seconds): .672 | Log S/S-P (200 μM substrate, flow rate 2000 ml/min (so in the source), 3.45 seconds): .560 | First-order rate constant [7]: 4.14 min⁻¹ | Slope of log [S]/[S]-[P] over seconds [7]: 0.030 | Log S/S-P (500 μM substrate, 1 pass at 2000 μl/min, 3.45 sec): .614 | Log S/S-P (500 μM substrate, 2 passes at 2000 μl/min, 6.90 sec): 1.236 | Log S/S-P (500 μM substrate, 3 passes at 2000 μl/min, 10.35 sec): 1.870 | Slope of log [S]/[S]-[P] versus seconds (500 μM substrate, repeated passes at 2000 μl/min): 0.199 | K^1 min^-1 (first order reaction constant) [6]: 22.40 min⁻¹ | Log S/S-P [6]: 0.560 | Velocity (substrate concentration 100 μM, flow rate 2.0 ml/min, pH 5.75): 170 nM/min | Velocity (substrate concentration 200 μM, flow rate 2.0 ml/min, pH 5.75): 344 nM/min | Velocity (substrate concentration 300 μM, flow rate 2.0 ml/min, pH 5.75): 503 nM/min | Velocity (substrate concentration 500 μM, flow rate 2.0 ml/min, pH 5.75): 846 nM/min | Velocity (substrate concentration 1000 μM, flow rate 2.0 ml/min, pH 5.75): 1684 nM/min

Structure (SMILES): O=C(NCC(=O)N1CCC[C@H]1C(=O)O)OCc1ccccc1 [N-CBZ-Gly-Pro] (Cbz-Gly-Pro-OH)
K^1 min^-1 (first order reaction constant) [6]: 0.160 min⁻¹ | Log S/S-P [6]: 0.004

Other lines, results leading:

K^1 min^-1 (first order reaction constant) [6]: 1.480 min⁻¹ | Log S/S-P [6]: 0.037
Structure (SMILES): O=C(O)[C@H](Cc1ccccc1)NC(=O)[C@@H]1CCCN1C(=O)OCc1ccccc1 [N-CBZ-Pro-Phe] (Cbz-Pro-Phe-OH)

Concentration of released alanine (20 mM substrate, flow rate 4 ml/minute): 10.49 mM | Rate of digestion (20 mM substrate, flow rate 4 ml/minute, pH 5.75): 41.96 µmol/min
Structure (SMILES): C[C@H](NC(=O)[C@H](Cc1ccccc1)NC(=O)OCc1ccccc1)C(=O)O [N-CBZ-Phe-Ala]
